Experimental data: patent US10770169B2, “Method of providing a treatment to a subject based on a dynamic pathway map” (THE REGENTS OF THE UNIVERSITY OF CALIFORNIA, priority 2010, dated 2020)
Counter-ions that a name gives are not always drawn. Like-named read-outs stand apart in the source and are kept apart here.

Test system: panel of 55 breast cancer cell lines
Assay: Cell growth inhibition assay (Cell Titer Glo, 72 h, 9 doses; GI50, TGI, LC50)
Assay type: cell-based, human
[1] = BT474 cell line, censored GI50 values, value is the negative log10 of mol/L
[2] = CAMA1 cell line, censored GI50 values, value is the negative log10 of mol/L
[3] = HCC1143 cell line, censored GI50 values, value is the negative log10 of mol/L
[4] = HCC1187 cell line, censored GI50 values, value is the negative log10 of mol/L
[5] = HCC1395 cell line, censored GI50 values, value is the negative log10 of mol/L
[6] = HCC1428 cell line, censored GI50 values, value is the negative log10 of mol/L
[7] = HCC1500 cell line, censored GI50 values, value is the negative log10 of mol/L
[8] = cell line BT20, value is the negative log10 of mol/L
[9] = cell line BT474, value is the negative log10 of mol/L
[10] = cell line BT483, value is the negative log10 of mol/L
[11] = cell line CAMA1, value is the negative log10 of mol/L
[12] = cell line HCC38, value is the negative log10 of mol/L
[13] = cell line HCC70, value is the negative log10 of mol/L
[14] = cell line HCC1143, value is the negative log10 of mol/L
[15] = cell line HCC1187, value is the negative log10 of mol/L
[16] = cell line HCC1395, value is the negative log10 of mol/L
[17] = cell line HCC1428, value is the negative log10 of mol/L
[18] = cell line HCC1500, value is the negative log10 of mol/L
[19] = cell line HCC1806, value is the negative log10 of mol/L
[20] = cell line HCC1937, value is the negative log10 of mol/L
[21] = cell line HCC1954, value is the negative log10 of mol/L
[22] = cell line HCC2185, value is the negative log10 of mol/L
[23] = cell line HCC3153, value is the negative log10 of mol/L

Molecule NS(=O)(=O)c1ccc(Nc2nc(OCC3CCCCC3)c3[nH]cnc3n2)cc1 [NU6102] has a GI50 (AU565 cell line, censored GI50 values, value is the negative log10 of mol/L) of 4.64, a GI50 [1] of 4.56 and a GI50 [2] of 4.91. For the same molecule, the GI50 [3] was 4.87, the GI50 [4] was 5.11 and the GI50 [5] was 5.24. It also gave a GI50 (HCC1419 cell line, censored GI50 values, value is the negative log10 of mol/L) of 4.54, a GI50 [6] of 4.87 and a GI50 [7] of 4.78. For the same molecule, the GI50 (HCC1806 cell line, censored GI50 values, value is the negative log10 of mol/L) was 4.64, the GI50 (cell line AU565, value is the negative log10 of mol/L) was 4.64 and the GI50 [8] was 4.23. It also gave a GI50 [9] of 4.56, a GI50 [10] of 4.18 and a GI50 [11] of 4.91. It also gave a GI50 [12] of 5.03, a GI50 [13] of 4.69 and a GI50 [14] of 4.87. The GI50 [15] was 5.11, the GI50 [16] was 5.24 and the GI50 (cell line HCC1419, value is the negative log10 of mol/L) was 4.54. It also gave a GI50 [17] of 4.87, a GI50 [18] of 4.78 and a GI50 [19] of 4.64. The GI50 [20] was 4.27, the GI50 [21] was 4.34 and the GI50 [22] was 4.85. The GI50 [23] was 4.81, the GI50 (cell line LY2, value is the negative log10 of mol/L) was 4.32 and the GI50 (cell line MCF7, value is the negative log10 of mol/L) was 4.39. The GI50 (cell line MDAMB134V, value is the negative log10 of mol/L) was 4.34, the GI50 (cell line MDAMB175V, value is the negative log10 of mol/L) was 4.26 and the GI50 (cell line MDAMB361, value is the negative log10 of mol/L) was 4.77. The GI50 (cell line MDAMB415, value is the negative log10 of mol/L) was 4.46, the GI50 (cell line MDAMB436, value is the negative log10 of mol/L) was 4.28 and the GI50 (cell line MDAMB453, value is the negative log10 of mol/L) was 4.91. For the same molecule, the GI50 (cell line MDAMB468, value is the negative log10 of mol/L) was 4.85, the GI50 (cell line SKBR3, value is the negative log10 of mol/L) was 4.51 and the GI50 (cell line SUM52PE, value is the negative log10 of mol/L) was 5.27. For the same molecule, the GI50 (cell line SUM149PT, value is the negative log10 of mol/L) was 5.08, the GI50 (cell line SUM159PT, value is the negative log10 of mol/L) was 4.90 and the GI50 (cell line SUM185PE, value is the negative log10 of mol/L) was 5.53. The GI50 (cell line SUM225CWN, value is the negative log10 of mol/L) was 4.30, the GI50 (cell line SUM1315MO, value is the negative log10 of mol/L) was 5.40 and the GI50 (cell line T47D, value is the negative log10 of mol/L) was 4.82. It also gave a GI50 (cell line UACC812, value is the negative log10 of mol/L) of 4.42, a GI50 (cell line ZR75B, value is the negative log10 of mol/L) of 4.85 and a GI50 (cell line ZR751, value is the negative log10 of mol/L) of 4.76.

Molecule CCCCCN(C)CCC(O)(P(=O)(O)O)P(=O)(O)O [Ibandronate sodium salt] has a GI50 (Homo sapiens, AU565, AU565 cell line, censored GI50 values, read-out: GI50 (converted)) of 182 µM, a GI50 (Homo sapiens, AU565, cell line AU565, read-out: GI50 (converted)) of 182 µM and a GI50 (Homo sapiens, BT-20, BT20 cell line, censored GI50 values, read-out: GI50 (converted)) of 20.4 µM. For the same molecule, the GI50 (Homo sapiens, BT-20, cell line BT20, read-out: GI50 (converted)) was 20.4 µM, the GI50 (Homo sapiens, BT-474, BT474 cell line, censored GI50 values, read-out: GI50 (converted)) was 105 µM and the GI50 (Homo sapiens, BT-483, BT483 cell line, censored GI50 values, read-out: GI50 (converted)) was 57.5 µM. It also gave a GI50 (Homo sapiens, CAMA-1, CAMA1 cell line, censored GI50 values, read-out: GI50 (converted)) of 162 µM, a GI50 (Homo sapiens, HCC38, HCC38 cell line, censored GI50 values, read-out: GI50 (converted)) of 57.5 µM and a GI50 (Homo sapiens, HCC70, HCC70 cell line, censored GI50 values, read-out: GI50 (converted)) of 69.2 µM. It also gave a GI50 (Homo sapiens, HCC1143, HCC1143 cell line, censored GI50 values, read-out: GI50 (converted)) of 43.7 µM, a GI50 (Homo sapiens, HCC1187, HCC1187 cell line, censored GI50 values, read-out: GI50 (converted)) of 170 µM and a GI50 (Homo sapiens, HCC1395, HCC1395 cell line, censored GI50 values, read-out: GI50 (converted)) of 7.41 µM. The GI50 (Homo sapiens, HCC1419, HCC1419 cell line, censored GI50 values, read-out: GI50 (converted)) was 7.59 µM, the GI50 (Homo sapiens, HCC1428, HCC1428 cell line, censored GI50 values, read-out: GI50 (converted)) was 129 µM and the GI50 (Homo sapiens, HCC1500, HCC1500 cell line, censored GI50 values, read-out: GI50 (converted)) was 38 µM. It also gave a GI50 (Homo sapiens, HCC1806, HCC1806 cell line, censored GI50 values, read-out: GI50 (converted)) of 33.1 µM, a GI50 (Homo sapiens, HCC1937, HCC1937 cell line, censored GI50 values, read-out: GI50 (converted)) of 40.7 µM and a GI50 (Homo sapiens, HCC1954, HCC1954 cell line, censored GI50 values, read-out: GI50 (converted)) of 55 µM. The GI50 (Homo sapiens, HCC2185 cell line, censored GI50 values, read-out: GI50 (converted)) was 15.1 µM, the GI50 (Homo sapiens, HCC3153 cell line, censored GI50 values, read-out: GI50 (converted)) was 79.4 µM and the GI50 (Homo sapiens, MDA-MB-134-VI, MDAMB134VI cell line, censored GI50 values, read-out: GI50 (converted)) was 69.2 µM. It also gave a GI50 (Homo sapiens, MDA-MB-175-VII, MDAMB175VII cell line, censored GI50 values, read-out: GI50 (converted)) of 33.9 µM, a GI50 (Homo sapiens, MDA-MB-231, MDAMB231 cell line, censored GI50 values, read-out: GI50 (converted)) of 74.1 µM and a GI50 (Homo sapiens, MDA-MB-415, MDAMB415 cell line, censored GI50 values, read-out: GI50 (converted)) of 49 µM. The GI50 (Homo sapiens, MDA-MB-453, MDAMB453 cell line, censored GI50 values, read-out: GI50 (converted)) was 110 µM, the GI50 (Homo sapiens, MDA-MB-468, MDAMB468 cell line, censored GI50 values, read-out: GI50 (converted)) was 93.3 µM and the GI50 (Homo sapiens, SK-BR-3, SKBR3 cell line, censored GI50 values, read-out: GI50 (converted)) was 89.1 µM. For the same molecule, the GI50 (Homo sapiens, SUM52PE, SUM52PE cell line, censored GI50 values, read-out: GI50 (converted)) was 35.5 µM, the GI50 (Homo sapiens, SUM149PT, SUM149PT cell line, censored GI50 values, read-out: GI50 (converted)) was 174 µM and the GI50 (Homo sapiens, SUM225CWN, SUM225CWN cell line, censored GI50 values, read-out: GI50 (converted)) was 501 µM. The GI50 (Homo sapiens, SUM1315MO2, SUM1315MO2 cell line, censored GI50 values, read-out: GI50 (converted)) was 50.1 µM, the GI50 (Homo sapiens, SUM-159-PT, SUM159PT cell line, censored GI50 values, read-out: GI50 (converted)) was 42.7 µM and the GI50 (Homo sapiens, T47D, T47D cell line, censored GI50 values, read-out: GI50 (converted)) was 34.7 µM. For the same molecule, the GI50 (Homo sapiens, UACC-812, UACC812 cell line, censored GI50 values, read-out: GI50 (converted)) was 155 µM, the GI50 (Homo sapiens, ZR-75-1, ZR751 cell line, censored GI50 values, read-out: GI50 (converted)) was 69.2 µM and the GI50 (Homo sapiens, ZR-75B, ZR75B cell line, censored GI50 values, read-out: GI50 (converted)) was 141 µM.

N#Cc1c(NC(=O)c2cccc3ccccc23)sc2c1CCCC2 [TCS JNK 5a] gave a GI50 (BT20 cell line, censored GI50 values, value is the negative log10 of mol/L) of 5.97, a GI50 [1] of 4.17 and a GI50 (BT483 cell line, censored GI50 values, value is the negative log10 of mol/L) of 5.94. It also gave a GI50 [2] of 5.48, a GI50 (HCC38 cell line, censored GI50 values, value is the negative log10 of mol/L) of 5.32 and a GI50 (HCC70 cell line, censored GI50 values, value is the negative log10 of mol/L) of 5.64. The GI50 [3] was 4.21, the GI50 [4] was 6.08 and the GI50 [5] was 6.21. For the same molecule, the GI50 [6] was 4.61, the GI50 [7] was 5.31 and the GI50 (HCC1954 cell line, censored GI50 values, value is the negative log10 of mol/L) was 5.90. For the same molecule, the GI50 (HCC2185 cell line, censored GI50 values, value is the negative log10 of mol/L) was 4.66, the GI50 (HCC3153 cell line, censored GI50 values, value is the negative log10 of mol/L) was 5.59 and the GI50 (MDAMB134VI cell line, censored GI50 values, value is the negative log10 of mol/L) was 4.78. For the same molecule, the GI50 (MDAMB175VII cell line, censored GI50 values, value is the negative log10 of mol/L) was 5.02, the GI50 (MDAMB453 cell line, censored GI50 values, value is the negative log10 of mol/L) was 6.12 and the GI50 (MDAMB468 cell line, censored GI50 values, value is the negative log10 of mol/L) was 4.37. It also gave a GI50 (SKBR3 cell line, censored GI50 values, value is the negative log10 of mol/L) of 5.27, a GI50 (SUM52PE cell line, censored GI50 values, value is the negative log10 of mol/L) of 4.86 and a GI50 (SUM149PT cell line, censored GI50 values, value is the negative log10 of mol/L) of 5.46. For the same molecule, the GI50 (SUM1315MO2 cell line, censored GI50 values, value is the negative log10 of mol/L) was 6.31, the GI50 (UACC812 cell line, censored GI50 values, value is the negative log10 of mol/L) was 5.72 and the GI50 (ZR75B cell line, censored GI50 values, value is the negative log10 of mol/L) was 4.59. The GI50 [8] was 5.97, the GI50 [9] was 4.17 and the GI50 [10] was 5.94. For the same molecule, the GI50 [11] was 5.48, the GI50 [12] was 5.32 and the GI50 [13] was 5.64. It also gave a GI50 [14] of 4.21, a GI50 [15] of 6.08 and a GI50 [16] of 6.21. For the same molecule, the GI50 [17] was 4.61, the GI50 [18] was 5.31 and the GI50 [19] was 3.92. For the same molecule, the GI50 [20] was 3.88, the GI50 [21] was 5.90 and the GI50 [22] was 4.66. The GI50 [23] was 5.59.
